From patent US10881640B2, “Topical pharmaceutical compositions for treatment of pilonidal sinus wounds” (S.L.A. PHARMA AG, priority 2002, dated 2021)

System: ischemic ulcers
Experiment: Case report: ischemic ulcers (peripheral vascular disease)
Format: in vivo, human
Details: person, prior therapy before topical treatment
Excerpt: A person presents with chronic peripheral vascular disease and ischemic ulcers over the medial aspect of the hallux.

Q: For `CC(=O)CCCCn1c(=O)c2c(ncn2C)n(C)c1=O` [Trental], which healing is on record?
A: failed to improve healing
